Data from article PMC3639963, “A New Class of Small Molecule Inhibitor of BMP Signaling” (PLoS ONE, 2013).

Assays:
Assay in all cases: DSF thermal shift
Format in all cases: binding
Details in all cases: 10 µM inhibitor; read-out: Tm shift
JNK2 = target: T1, JNK2 (Homo sapiens, UniProt P45984)
T1 construct: purchased Nanosyn (enzymatic panel); SGC in-house recombinant human kinases (DSF panel); Invitrogen (ALK1-6)
Description: (§1) Thermal melting experiments were performed using a Real Time PCR machine Mx3005p (Stratagene) with a protein concentration of 1–2 µM and 10 µM inhibitor as described previously, [25]. […] Recombinant human kinases for DSF screening were prepared by SGC using published methods, [36].

MST4 = target: T2, MST4 (Homo sapiens, UniProt Q9P289)
T2 construct: purchased Nanosyn (enzymatic panel); SGC in-house recombinant human kinases (DSF panel); Invitrogen (ALK1-6)
Description: as §1

DRAK2 = target: T3, DRAK2 (Homo sapiens, UniProt O94768)
T3 construct: purchased Nanosyn (enzymatic panel); SGC in-house recombinant human kinases (DSF panel); Invitrogen (ALK1-6)
T3 sequence (O94768 1-372): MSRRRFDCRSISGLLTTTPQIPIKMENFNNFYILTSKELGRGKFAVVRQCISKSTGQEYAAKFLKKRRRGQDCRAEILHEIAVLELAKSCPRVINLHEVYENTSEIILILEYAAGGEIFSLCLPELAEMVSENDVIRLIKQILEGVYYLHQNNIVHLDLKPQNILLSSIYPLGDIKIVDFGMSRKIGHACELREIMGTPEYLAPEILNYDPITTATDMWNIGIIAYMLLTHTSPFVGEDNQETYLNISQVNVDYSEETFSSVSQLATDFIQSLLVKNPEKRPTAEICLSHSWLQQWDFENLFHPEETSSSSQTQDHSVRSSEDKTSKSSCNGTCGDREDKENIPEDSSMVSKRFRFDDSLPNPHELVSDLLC
Description: as §1

CHEK2 = target: T4, CHEK2 (Homo sapiens, UniProt O96017)
T4 construct: purchased Nanosyn (enzymatic panel); SGC in-house recombinant human kinases (DSF panel); Invitrogen (ALK1-6)
Description: as §1

LOK = target: T5, LOK (Homo sapiens, UniProt O94804)
T5 construct: purchased Nanosyn (enzymatic panel); SGC in-house recombinant human kinases (DSF panel); Invitrogen (ALK1-6)
Description: as §1

VRK2 = target: T6, VRK2 (Homo sapiens, UniProt Q86Y07)
T6 construct: purchased Nanosyn (enzymatic panel); SGC in-house recombinant human kinases (DSF panel); Invitrogen (ALK1-6)
Description: as §1

PTK7 = target: T7, PTK7 (Homo sapiens, UniProt Q13308)
T7 construct: purchased Nanosyn (enzymatic panel); SGC in-house recombinant human kinases (DSF panel); Invitrogen (ALK1-6)
T7 sequence (Q13308 31-1070): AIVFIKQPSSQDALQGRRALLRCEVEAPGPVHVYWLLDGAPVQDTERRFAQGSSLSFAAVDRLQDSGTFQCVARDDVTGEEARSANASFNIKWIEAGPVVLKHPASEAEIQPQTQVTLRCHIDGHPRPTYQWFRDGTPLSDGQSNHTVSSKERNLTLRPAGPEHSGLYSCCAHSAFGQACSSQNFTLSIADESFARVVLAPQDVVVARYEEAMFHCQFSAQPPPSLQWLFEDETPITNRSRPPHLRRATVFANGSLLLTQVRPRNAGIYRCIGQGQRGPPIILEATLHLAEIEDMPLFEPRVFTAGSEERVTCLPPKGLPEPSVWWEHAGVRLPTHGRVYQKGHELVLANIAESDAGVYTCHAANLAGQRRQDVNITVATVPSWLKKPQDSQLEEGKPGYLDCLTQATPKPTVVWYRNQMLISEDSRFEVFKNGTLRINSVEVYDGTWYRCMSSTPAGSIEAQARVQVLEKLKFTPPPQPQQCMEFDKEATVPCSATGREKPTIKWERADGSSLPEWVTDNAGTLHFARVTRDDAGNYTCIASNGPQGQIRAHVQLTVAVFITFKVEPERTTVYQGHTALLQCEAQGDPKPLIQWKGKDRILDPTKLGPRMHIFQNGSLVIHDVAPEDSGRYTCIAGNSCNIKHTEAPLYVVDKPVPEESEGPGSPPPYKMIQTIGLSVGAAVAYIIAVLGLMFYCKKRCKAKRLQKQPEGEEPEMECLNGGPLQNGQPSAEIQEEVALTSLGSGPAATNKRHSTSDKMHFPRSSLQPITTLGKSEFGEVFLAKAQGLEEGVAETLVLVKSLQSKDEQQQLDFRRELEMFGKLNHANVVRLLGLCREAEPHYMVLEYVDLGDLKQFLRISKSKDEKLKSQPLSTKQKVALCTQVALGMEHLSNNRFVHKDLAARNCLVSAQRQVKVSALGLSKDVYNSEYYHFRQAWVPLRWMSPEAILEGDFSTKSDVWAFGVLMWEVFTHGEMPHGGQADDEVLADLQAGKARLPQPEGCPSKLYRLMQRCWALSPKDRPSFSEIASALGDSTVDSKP
Description: as §1

CK1γ1 = target: T8, CK1γ1 (Homo sapiens, UniProt Q9HCP0)
T8 construct: purchased Nanosyn (enzymatic panel); SGC in-house recombinant human kinases (DSF panel); Invitrogen (ALK1-6)
Description: as §1

PIM3 = target: T9, PIM3 (Homo sapiens, UniProt Q86V86)
T9 construct: purchased Nanosyn (enzymatic panel); SGC in-house recombinant human kinases (DSF panel); Invitrogen (ALK1-6)
Description: as §1

Haspin = target: T10, Haspin (Homo sapiens, UniProt Q8TF76)
T10 construct: purchased Nanosyn (enzymatic panel); SGC in-house recombinant human kinases (DSF panel); Invitrogen (ALK1-6)
T10 sequence (Q8TF76 1-798): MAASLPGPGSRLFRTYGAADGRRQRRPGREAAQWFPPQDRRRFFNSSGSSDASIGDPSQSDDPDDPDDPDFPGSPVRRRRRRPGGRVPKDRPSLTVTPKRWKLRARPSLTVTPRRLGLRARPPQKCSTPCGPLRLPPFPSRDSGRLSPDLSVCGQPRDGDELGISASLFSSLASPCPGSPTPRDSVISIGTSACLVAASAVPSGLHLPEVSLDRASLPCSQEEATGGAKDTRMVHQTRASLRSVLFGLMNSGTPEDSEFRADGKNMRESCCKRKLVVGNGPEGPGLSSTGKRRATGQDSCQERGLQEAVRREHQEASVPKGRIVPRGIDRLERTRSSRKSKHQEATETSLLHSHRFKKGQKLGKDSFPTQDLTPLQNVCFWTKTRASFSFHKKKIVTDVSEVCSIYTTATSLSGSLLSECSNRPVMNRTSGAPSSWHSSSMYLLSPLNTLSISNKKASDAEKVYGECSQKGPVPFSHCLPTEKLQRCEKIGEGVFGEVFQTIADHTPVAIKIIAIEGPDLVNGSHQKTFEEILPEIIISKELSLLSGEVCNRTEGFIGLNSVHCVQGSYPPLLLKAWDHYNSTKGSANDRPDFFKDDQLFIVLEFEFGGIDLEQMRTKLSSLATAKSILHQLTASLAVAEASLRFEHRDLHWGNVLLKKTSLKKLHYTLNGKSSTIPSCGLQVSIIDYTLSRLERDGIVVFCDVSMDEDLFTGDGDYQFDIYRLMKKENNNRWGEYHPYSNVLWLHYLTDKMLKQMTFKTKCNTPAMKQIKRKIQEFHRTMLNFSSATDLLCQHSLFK
Description: as §1

MPSK1 = target: T11, MPSK1 (Homo sapiens, UniProt O75716)
T11 construct: purchased Nanosyn (enzymatic panel); SGC in-house recombinant human kinases (DSF panel); Invitrogen (ALK1-6)
Description: as §1

JNK1 = target: T12, JNK1 (Homo sapiens, UniProt P45983)
T12 construct: purchased Nanosyn (enzymatic panel); SGC in-house recombinant human kinases (DSF panel); Invitrogen (ALK1-6)
Description: as §1

T5 sequence (O94804 whole entry): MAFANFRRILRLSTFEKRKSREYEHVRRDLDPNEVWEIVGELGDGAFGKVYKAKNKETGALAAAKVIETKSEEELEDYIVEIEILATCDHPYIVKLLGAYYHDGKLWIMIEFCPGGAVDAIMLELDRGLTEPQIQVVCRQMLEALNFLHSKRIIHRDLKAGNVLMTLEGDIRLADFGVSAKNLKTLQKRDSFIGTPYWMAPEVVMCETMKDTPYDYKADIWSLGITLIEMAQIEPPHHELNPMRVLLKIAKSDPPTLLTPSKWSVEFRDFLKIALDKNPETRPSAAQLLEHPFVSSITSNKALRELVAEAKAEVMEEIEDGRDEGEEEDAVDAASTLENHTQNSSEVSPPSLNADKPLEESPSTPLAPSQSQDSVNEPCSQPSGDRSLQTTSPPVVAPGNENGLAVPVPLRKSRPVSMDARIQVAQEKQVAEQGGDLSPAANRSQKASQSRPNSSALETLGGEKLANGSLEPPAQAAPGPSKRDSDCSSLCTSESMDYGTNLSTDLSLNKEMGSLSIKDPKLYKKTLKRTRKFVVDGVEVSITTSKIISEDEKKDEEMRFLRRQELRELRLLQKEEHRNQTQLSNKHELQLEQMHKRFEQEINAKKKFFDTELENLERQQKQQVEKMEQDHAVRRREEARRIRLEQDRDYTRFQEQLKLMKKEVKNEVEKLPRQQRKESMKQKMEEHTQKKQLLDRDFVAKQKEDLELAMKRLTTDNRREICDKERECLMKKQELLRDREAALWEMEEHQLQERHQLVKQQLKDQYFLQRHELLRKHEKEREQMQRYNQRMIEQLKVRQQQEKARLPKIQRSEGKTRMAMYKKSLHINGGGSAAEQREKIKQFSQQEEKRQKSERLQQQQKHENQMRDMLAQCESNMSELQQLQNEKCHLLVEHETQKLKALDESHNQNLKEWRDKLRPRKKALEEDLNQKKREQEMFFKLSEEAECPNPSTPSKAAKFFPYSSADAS
T8 sequence (Q9HCP0 whole entry): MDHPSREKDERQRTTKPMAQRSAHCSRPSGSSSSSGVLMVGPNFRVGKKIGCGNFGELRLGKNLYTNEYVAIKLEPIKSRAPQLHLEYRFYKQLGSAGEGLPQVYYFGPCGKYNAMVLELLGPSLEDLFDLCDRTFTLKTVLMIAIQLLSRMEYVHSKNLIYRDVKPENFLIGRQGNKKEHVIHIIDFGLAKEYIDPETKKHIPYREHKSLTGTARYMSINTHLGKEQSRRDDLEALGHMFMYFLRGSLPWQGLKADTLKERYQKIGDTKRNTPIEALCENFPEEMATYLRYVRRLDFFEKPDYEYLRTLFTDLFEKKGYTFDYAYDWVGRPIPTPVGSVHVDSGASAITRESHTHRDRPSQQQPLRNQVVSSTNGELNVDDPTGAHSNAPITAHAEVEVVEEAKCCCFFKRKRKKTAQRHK
T4 sequence (O96017 whole entry): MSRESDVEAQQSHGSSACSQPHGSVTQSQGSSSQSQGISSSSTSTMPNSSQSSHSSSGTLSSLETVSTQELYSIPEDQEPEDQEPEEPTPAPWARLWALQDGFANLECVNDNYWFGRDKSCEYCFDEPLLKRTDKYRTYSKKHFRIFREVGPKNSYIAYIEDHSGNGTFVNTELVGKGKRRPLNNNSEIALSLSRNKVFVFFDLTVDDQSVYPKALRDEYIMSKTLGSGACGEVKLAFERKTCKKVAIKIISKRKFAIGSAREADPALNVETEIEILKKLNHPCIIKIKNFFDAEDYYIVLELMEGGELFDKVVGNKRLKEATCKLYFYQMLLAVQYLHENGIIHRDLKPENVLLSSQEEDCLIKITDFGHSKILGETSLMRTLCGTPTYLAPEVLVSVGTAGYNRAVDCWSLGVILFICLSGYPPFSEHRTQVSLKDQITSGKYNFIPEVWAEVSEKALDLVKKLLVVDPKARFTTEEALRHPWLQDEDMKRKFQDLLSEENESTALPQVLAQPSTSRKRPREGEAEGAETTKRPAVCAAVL
T11 sequence (O75716 whole entry): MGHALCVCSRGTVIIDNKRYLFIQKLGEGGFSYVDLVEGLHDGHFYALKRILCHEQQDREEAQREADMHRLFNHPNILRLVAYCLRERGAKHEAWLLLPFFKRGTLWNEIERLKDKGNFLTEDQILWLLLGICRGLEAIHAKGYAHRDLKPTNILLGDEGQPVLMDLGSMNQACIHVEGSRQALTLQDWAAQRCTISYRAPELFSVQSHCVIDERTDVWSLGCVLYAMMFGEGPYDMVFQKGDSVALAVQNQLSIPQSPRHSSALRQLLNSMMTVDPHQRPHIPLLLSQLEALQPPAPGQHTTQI
T6 sequence (Q86Y07 whole entry): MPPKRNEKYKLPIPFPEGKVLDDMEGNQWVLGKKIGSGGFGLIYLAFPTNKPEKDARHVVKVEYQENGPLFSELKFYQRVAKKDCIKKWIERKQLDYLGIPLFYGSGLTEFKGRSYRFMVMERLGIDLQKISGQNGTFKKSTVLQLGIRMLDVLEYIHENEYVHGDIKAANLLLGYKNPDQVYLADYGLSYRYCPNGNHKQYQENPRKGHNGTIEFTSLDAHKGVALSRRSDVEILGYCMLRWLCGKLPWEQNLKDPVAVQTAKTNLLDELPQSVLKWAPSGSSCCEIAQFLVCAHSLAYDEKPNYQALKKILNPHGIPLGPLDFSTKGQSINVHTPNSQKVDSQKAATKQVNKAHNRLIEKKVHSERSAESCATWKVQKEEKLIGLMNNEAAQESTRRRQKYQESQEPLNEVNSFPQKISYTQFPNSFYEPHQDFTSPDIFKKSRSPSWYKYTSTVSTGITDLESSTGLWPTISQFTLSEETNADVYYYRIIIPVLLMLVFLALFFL
T2 sequence (Q9P289 whole entry): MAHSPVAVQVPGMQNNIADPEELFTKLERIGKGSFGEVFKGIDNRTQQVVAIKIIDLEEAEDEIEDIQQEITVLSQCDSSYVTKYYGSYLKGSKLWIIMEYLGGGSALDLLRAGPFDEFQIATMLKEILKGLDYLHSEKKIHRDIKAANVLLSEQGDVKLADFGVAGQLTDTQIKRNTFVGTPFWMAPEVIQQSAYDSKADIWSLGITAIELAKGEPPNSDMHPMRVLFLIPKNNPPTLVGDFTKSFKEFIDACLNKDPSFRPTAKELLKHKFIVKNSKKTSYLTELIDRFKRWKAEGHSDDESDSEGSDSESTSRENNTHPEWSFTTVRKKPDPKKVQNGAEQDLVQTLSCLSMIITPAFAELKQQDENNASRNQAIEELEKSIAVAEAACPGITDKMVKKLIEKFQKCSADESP
T1 sequence (P45984 whole entry): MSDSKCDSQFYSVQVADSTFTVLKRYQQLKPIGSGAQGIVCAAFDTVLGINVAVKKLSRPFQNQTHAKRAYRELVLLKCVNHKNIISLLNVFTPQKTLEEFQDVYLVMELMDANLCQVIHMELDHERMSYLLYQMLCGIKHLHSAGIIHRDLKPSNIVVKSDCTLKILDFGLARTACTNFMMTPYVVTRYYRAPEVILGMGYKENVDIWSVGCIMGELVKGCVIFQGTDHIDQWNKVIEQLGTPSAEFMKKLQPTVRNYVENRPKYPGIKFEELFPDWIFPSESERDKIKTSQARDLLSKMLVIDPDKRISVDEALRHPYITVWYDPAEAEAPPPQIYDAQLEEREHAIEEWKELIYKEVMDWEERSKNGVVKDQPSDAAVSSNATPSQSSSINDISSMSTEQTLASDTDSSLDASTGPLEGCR
T12 sequence (P45983 whole entry): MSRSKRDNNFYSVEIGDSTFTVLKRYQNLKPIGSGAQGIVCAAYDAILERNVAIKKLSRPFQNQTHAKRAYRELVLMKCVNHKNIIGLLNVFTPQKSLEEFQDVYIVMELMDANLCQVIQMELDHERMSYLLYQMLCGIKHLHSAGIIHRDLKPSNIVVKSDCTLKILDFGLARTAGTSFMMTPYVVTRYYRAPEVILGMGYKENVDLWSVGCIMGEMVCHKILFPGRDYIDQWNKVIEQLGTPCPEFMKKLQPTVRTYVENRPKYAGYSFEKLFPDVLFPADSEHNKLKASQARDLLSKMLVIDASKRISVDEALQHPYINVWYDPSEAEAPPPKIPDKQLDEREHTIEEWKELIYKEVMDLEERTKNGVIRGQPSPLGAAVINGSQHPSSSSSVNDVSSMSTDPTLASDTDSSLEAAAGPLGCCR

`COc1cc(-c2cc(-c3cccc(O)c3)cnc2N)cc(OC)c1OC` [K02288, 3-[6-amino-5-(3,4,5-trimethoxy-phenyl)-pyridin-3-yl]-phenol] was tested, and the ΔTm at 10 µM (JNK2) was -0.1 °C, the ΔTm at 10 µM (MST4) was 0.2 °C and the ΔTm at 10 µM (DRAK2) was 0.6 °C. For the same compound, the ΔTm at 10 µM (CHEK2) was 0 °C, the ΔTm at 10 µM (LOK) was 2.1 °C and the ΔTm at 10 µM (VRK2) was 0.6 °C. It also gave a ΔTm at 10 µM (PTK7) of -1.3 °C, a ΔTm at 10 µM (CK1γ1) of 0.7 °C and a ΔTm at 10 µM (PIM3) of -0.2 °C. It also gave a ΔTm at 10 µM (Haspin) of 0.3 °C, a ΔTm at 10 µM (MPSK1) of 0.3 °C and a ΔTm at 10 µM (JNK1) of 0.2 °C.

`c1cc(-c2cnn3cc(-c4ccc(OCCN5CCCCC5)cc4)cnc23)ccn1` [Dorsomorphin] was tested, and the ΔTm at 10 µM (JNK2) was 0.4 °C, the ΔTm at 10 µM (MST4) was 0.7 °C and the ΔTm at 10 µM (DRAK2) was 10 °C. For the same compound, the ΔTm at 10 µM (CHEK2) was 1.7 °C, the ΔTm at 10 µM (LOK) was 2.5 °C and the ΔTm at 10 µM (VRK2) was 0.2 °C. For the same compound, the ΔTm at 10 µM (PTK7) was -1.2 °C, the ΔTm at 10 µM (CK1γ1) was 0.4 °C and the ΔTm at 10 µM (PIM3) was 0.6 °C. For the same compound, the ΔTm at 10 µM (Haspin) was 2.3 °C, the ΔTm at 10 µM (MPSK1) was 5.3 °C and the ΔTm at 10 µM (JNK1) was 0 °C.

With `c1ccc2c(-c3cnn4cc(-c5ccc(N6CCNCC6)cc5)cnc34)ccnc2c1` [LDN-193189] the ΔTm at 10 µM (JNK2) was -0.6 °C, the ΔTm at 10 µM (MST4) was 0.8 °C and the ΔTm at 10 µM (DRAK2) was 2.1 °C. For the same compound, the ΔTm at 10 µM (CHEK2) was 1.4 °C, the ΔTm at 10 µM (LOK) was 3.1 °C and the ΔTm at 10 µM (VRK2) was -0.2 °C. It also gave a ΔTm at 10 µM (PTK7) of -0.3 °C, a ΔTm at 10 µM (CK1γ1) of 0.3 °C and a ΔTm at 10 µM (PIM3) of -0.2 °C. For the same compound, the ΔTm at 10 µM (Haspin) was 0.4 °C, the ΔTm at 10 µM (MPSK1) was 5.3 °C and the ΔTm at 10 µM (JNK1) was 0.5 °C.
